Broadly, the Ki is the equilibrium dissociation constant of an inhibitor or competing ligand from its target. High values mean a looser hold on the target, low ones a stronger hold on the target. As usually defined, the IC50 is the midpoint of a concentration-inhibition curve. The inhibition in vivo is the drop in the measured response relative to a control, in per cent. Broadly, the ED50 is the midpoint of the dose-response relation. The low end stands for greater potency, the high end for weaker potency. What is called half-life is how long it takes for the measured level to halve. As a reminder, the AUC is concentration integrated over time. A low value points to less exposure. One may read the Tmax as the time at which the peak concentration occurs. As usually defined, the clearance is the rate of elimination divided by the concentration.

24 compounds from ChEMBL document CHEMBL1130889, “The synthesis and biological evaluation of a novel series of indole PDE4 inhibitors I” (Bioorg Med Chem Lett, 1998) can be followed below.

Data set [1] has as its target Phosphodiesterase 4 (Cavia porcellus). Nature of the data set: Binding affinity against PDE4 was determined using [3H]- rolipram in guinea pig brain membrane binding assay.
Data set [2] has the same target. Nature of the data set: Inhibitory activity against Phosphodiesterase type IV (PDE4) obtained from guinea-pig macrophage was evaluated.
The subject of data set [3] is PBMC. Nature of the data set: Inhibition of tumor necrosis factor-alpha release from activated human monocyte cells in the presence of RP73401. It counts as functional, cell-based.
Data set [4] has as its system PBMC. Nature of the data set: Inhibition of tumor necrosis factor-alpha release from activated human monocyte cells at 0.3 uM. The format is functional, cell-based.
The test system of data set [5] is PBMC. Nature of the data set: Inhibition of tumor necrosis factor-alpha release from activated human monocyte cells. The format is functional, cell-based.
Data set [6] relates to Mus musculus. Nature of the data set: Inhibition of LPS-induced tumor necrosis factor-alpha (TNF-alpha) production in mice at 50 mg/kg. It counts as functional.
Data set [7] is described as follows: Terminal half life was evaluated in mice after oral administration. The settings on record: mouse, in vivo. The format is ADME, organism-based.
The nature of data set [8]: Area under the curve was evaluated in mice after oral administration. The format is ADME, organism-based. Conditions: mouse, in vivo.
Data set [9] can be described thus: Maximum time required to reach Cp max was evaluated in mice after oral administration. The settings on record: mouse, plasma. The format is ADME, organism-based.
Data set [10] can be described thus: Maximum plasma concentration was evaluated in mice after oral administration. It counts as ADME, organism-based. The settings on record: mouse, read-out: Cp max.
The nature of data set [11]: Area under the curve was evaluated in mice after intravenous administration. Conditions: mouse, in vivo. The format is ADME, organism-based.
Data set [12] in a line: Clearance was evaluated in mice after intravenous administration. It counts as ADME, organism-based. The settings on record: mouse, in vivo.
A short description of data set [13]: Volume of distribution was evaluated in mice after intravenous administration. It counts as ADME, organism-based. The settings on record: mouse, in vivo, read-out: Vdss.
A short description of data set [14]: Terminal half life was evaluated in mice after intravenous administration. The format is ADME, organism-based. The settings on record: mouse, in vivo.
The nature of data set [15]: Bioavailability was evaluated in mice after oral administration. The format is ADME, organism-based. Conditions: mouse, in vivo, read-out: Bioavailabiility.
The test system of data set [16] is PBMC. Nature of the data set: Inhibition of tumor necrosis factor-alpha release from activated human monocyte cells at […]. The format is functional, cell-based.

Regarding `COc1ccccc1Cn1cc(C)c2ccc(C(=O)Nc3c(Cl)cncc3Cl)cc21`, in [1], the Ki is given as 54 nM. For the same compound, the half-inhibitory concentration (IC50) in data set [2] was determined as 80 nM.
In [2], `Cc1c[nH]c2cc(C(=O)Nc3c(Cl)cncc3Cl)ccc12` had an IC50 of 5 nM.
Compound `Cc1cn(CCN2CCOCC2)c2cc(C(=O)Nc3c(Cl)cncc3Cl)ccc12` registered a Ki in data set [1] of 172 nM. Also, the IC50 in data set [2] worked out at 380 nM; in [3], 3 nM; in data set [4] it was 28 nM.
On to `Cc1cn(CC2CCCCC2)c2cc(C(=O)Nc3c(Cl)cncc3Cl)ccc12`, for which the inhibition constant Ki in data set [1] is recorded as 120 nM. In addition, the half-maximal inhibitory concentration (IC50) turned out to be 100 nM in [2], 200 nM in data set [5] and 8 nM in data set [3]. The compound further registered an inhibition in vivo at 50 mg/kg in data set [6] of 0%.
The compound `Cc1ccc(S(=O)(=O)n2cc(Cc3ccccc3)c3ccc(C(=O)Nc4c(Cl)cncc4Cl)cc32)cc1` came in with a Ki in data set [1] above 3745 nM. Also, the IC50 in data set [2] was above 10000 nM.
Consider `Cc1cn(Cc2cccc([N+](=O)[O-])c2)c2cc(C(=O)Nc3c(Cl)cncc3Cl)ccc12`, for which the Ki in data set [1] came to 75 nM. The results for the IC50 in data set [2], in [5] and in [3] were 52 nM, 34 nM and 2 nM, respectively. Further, the inhibition in vivo at 50 mg/kg in data set [6] is 16%.
Compound `Cc1cn(Cc2ccccc2)c2cc(C(=O)Nc3c(Cl)cncc3Cl)ccc12` displayed a Ki in data set [1] of 135 nM. The IC50 in [2] amounted to 18 nM; in data set [5], 23 nM; in data set [3], 4 nM. This compound also registered an inhibition in vivo at 50 mg/kg in data set [6] of 0%.
For `Cc1nc(Cn2cc(C)c3ccc(C(=O)Nc4c(Cl)cncc4Cl)cc32)cs1`, in that order: 24 nM, 42 nM, 24.1 nM, 1.5 nM and 0%.
For `Cc1noc(C)c1Cn1cc(C)c2ccc(C(=O)Nc3c(Cl)cncc3Cl)cc21`, in that order: 75 nM, 187 nM, 580 nM, 18 nM and 0%.
`COc1ccc(C(=O)Nc2c(Cl)cncc2Cl)cc1OC1CCCC1`: the ED50 in [6] was determined as 10 mg/kg.
`Cc1cn(CCc2ccccc2)c2cc(C(=O)Nc3c(Cl)cncc3Cl)ccc12`: in [1], the Ki is listed as 280 nM. In addition, the IC50 in [2] came to 70 nM; in data set [5] it was 8 nM; in data set [3], 0.9 nM.
In data set [1], `Cc1cn(Cc2ccc(S(C)(=O)=O)cc2)c2cc(C(=O)Nc3c(Cl)cncc3Cl)ccc12` displayed a Ki of 300 nM. For the same compound, the IC50 is 200 nM in [2], 134 nM in data set [5] and above 1 nM in [3]. In data set [6], this compound came in with an inhibition in vivo at 50 mg/kg of 0%.
Taken in the same sequence, the figures for `Cc1ccc(S(=O)(=O)n2cc(C)c3ccc(C(=O)Nc4c(Cl)cncc4Cl)cc32)cc1` were 712 nM, 45 nM, 300 nM, 3 nM and 0%.
As for `CCc1cn(S(=O)(=O)c2ccc(C)cc2)c2cc(C(=O)Nc3c(Cl)cncc3Cl)ccc12`, the Ki in [1] is above 3745 nM. The IC50 in data set [2] is 2900 nM.
Taken in the same sequence, the figures for `COc1cccc(Cn2cc(C)c3ccc(C(=O)Nc4c(Cl)cncc4Cl)cc32)c1` were 75 nM and 60 nM.
For the compound `COc1ccc(Cn2cc(C)c3ccc(C(=O)Nc4c(Cl)cncc4Cl)cc32)cc1`, the half-life is 1.7 h in data set [7] and 2.6 h in data set [14]. In addition, the area under the curve (AUC) in data set [8] amounted to 25.3 ng·h/mL; in data set [11], 678 ng·h/mL. Further, the Tmax in data set [9] came to 0.5 h. In addition, the Cmax in data set [10] came out at 9.9 ng/mL. The compound further had a clearance in data set [12] of 24.7 mL/min/kg. In addition, the figures for the IC50 in [5] and in data set [3] were 60 nM and 3 nM, respectively. For the same compound, the Vd in [13] turned out to be 2.4 L/kg. Moreover, the bioavailability in [15] is 3.7%. Further, at 50 mg/kg the inhibition in vivo in data set [6] was 20%.
Take `Cc1cn(CCCc2ccccc2)c2cc(C(=O)Nc3c(Cl)cncc3Cl)ccc12`: the Ki in [1] came to 41 nM. Further, the IC50 in data set [2] stood at 25 nM; in data set [5], 168 nM; in data set [3], 3 nM. This compound returned an inhibition in vivo at 50 mg/kg in [6] of 17%.
In turn, `Cc1cn(Cc2cccc3ccccc23)c2cc(C(=O)Nc3c(Cl)cncc3Cl)ccc12` had a Ki in data set [1] of 60 nM. The IC50 in data set [2] came out at 46 nM; in data set [5], 1300 nM; in data set [3] it was 10 nM.
In data set [1], `Cc1cn(CCCC2CCCCC2)c2cc(C(=O)Nc3c(Cl)cncc3Cl)ccc12` came in with a Ki of 187 nM. For the same compound, the values for the IC50 in data set [2], in data set [5] and in [3] were 220 nM, 12 nM and 0.7 nM, respectively. This compound also registered an inhibition in vivo at 50 mg/kg in data set [6] of 27%.
Turning to `Cc1cn(CCC2CCCCC2)c2cc(C(=O)Nc3c(Cl)cncc3Cl)ccc12`, the Ki in data set [1] is reported as 21 nM. In addition, the IC50 was found to be 3.2 nM in data set [2], 2 nM in [5] and 0.7 nM in data set [3]. The compound also showed an inhibition in vivo at 50 mg/kg in data set [6] of 0%.
For `Cc1cn(Cc2ccc3ccccc3c2)c2cc(C(=O)Nc3c(Cl)cncc3Cl)ccc12`, the Ki in data set [1] was determined as 7 nM. Moreover, the figures for the IC50 in data set [2], in [5] and in data set [3] were 5.2 nM, 90 nM and 10.5 nM, respectively. In addition, in data set [6], the inhibition in vivo at 50 mg/kg is 0%.
Compound `CCCCCCCn1cc(C)c2ccc(C(=O)Nc3c(Cl)cncc3Cl)cc21` gave a Ki in data set [1] of 66 nM. Further, the IC50 in data set [2] was 25 nM; in data set [5], 11 nM; in data set [3] it was 3 nM. This compound also gave an inhibition in vivo at 50 mg/kg in data set [6] of 22%.
Take `Cc1cn(C2CCCC2)c2cc(C(=O)Nc3c(Cl)cncc3Cl)ccc12`: the IC50 stood at 30 nM in data set [16], 15 nM in data set [2] and 3 nM in data set [3]. This compound also gave a Ki in data set [1] of 374 nM.
As for `Cc1cn(Cc2ccc(C(N)=O)cc2)c2cc(C(=O)Nc3c(Cl)cncc3Cl)ccc12`, the inhibition constant (Ki) in data set [1] is recorded as 220 nM. Also, the IC50 is 300 nM in data set [2], 53 nM in [5] and below 1 nM in [3]. For the same compound, in [6], the inhibition in vivo at 50 mg/kg is 0%.
